# Values quoted from earlier work in US6803057B2, “Hydrogen peroxide disinfectant with increased activity” (Virox Technologies Inc., priority 1998, dated 2004).
# Like-named read-outs stand apart in the source and are kept apart here.
# Assays:
# [1] = test system: Salmonella typhimurium and Listeria monocytogenes
# [2] = test system: staphylococcus aureus
Structure (SMILES),concentration effective in sanitizing [1],time required to disinfect surfaces contaminated with staphylococcus aureus ([2]; 0.1 wt./wt. % aqueous solution),time required to disinfect surfaces contaminated with staphylococcus aureus ([2]; 25.8 wt./wt. % aqueous solution),corrosivity / irritancy (1-3 wt./wt. % aqueous solution),corrosivity / irritancy (3-7 wt./wt. % aqueous solution),corrosivity / irritancy (above about 8 wt./wt. % aqueous solution)
"CCCCCCCCCCCCc1ccc(S(=O)(=O)O)cc1 [DDBSA, dodecyl benzene sulfonic acid]",≥ 200 ppm,,,,,
OO [hydrogen peroxide],,60 min,0.333 min,non-corrosive and non-irritating,non-corrosive but an eye irritant,corrosive
